Source: ChEMBL document CHEMBL1130295, “A QSAR study of antiplatelet agents using artificial neural network - correlation with micelle-water partition coefficient” (1997)

experiment: Antiplatelet activity as log (APA) by using artificial neural network (ANN) method; type: functional

Q: With `CCOC(=O)COc1ccccc1-c1nc(C)c(-c2cccnc2)[nH]1` as the molecule, how does the “Observed log APA” value read?
A: Its value is 0.6.

Q: For `COc1c(-c2nc(C)c(-c3cccnc3)[nH]2)cc2nc(C)[nH]c2c1Cl`, which “Observed log APA” value is on record?
A: The value was 1.4.

Q: Which “Observed log APA” value does the source give for `Cc1[nH]c(-c2ccccc2N)nc1-c1cccnc1` here?
A: Its value is 0.8.

Q: Which “Observed log APA” value does the source give for `COc1cc(OC)c(-c2nc(C)c(-c3cccnc3)[nH]2)cc1NC(C)=O` here?
A: Its value is 0.93.

Q: For `COc1c(-c2nc(C)c(-c3cccnc3)[nH]2)ccc2[nH]c(C)nc12`, which “Observed log APA” value is on record?
A: Its value is 0.72.

Q: Which “Observed log APA” value does the source give for `Cc1ccccc1-c1nc(C)c(-c2cccnc2)[nH]1` here?
A: Its value is 0.18.

Q: With `COc1c(-c2nc(C)c(-c3cccnc3)[nH]2)cc2nc(O)[nH]c2c1Cl` as the molecule, how does the “Observed log APA” value read?
A: The value was 0.79.

Q: For `Cc1[nH]c(-c2ccccc2Cl)nc1-c1cccnc1`, which “Observed log APA” value is on record?
A: Its value is 0.38.

Q: For `Cc1nc2cc(-c3nc(C)c(-c4cccnc4)[nH]3)c(C)cc2[nH]1`, which “Observed log APA” value is on record?
A: Its value is 0.74.

Q: Which “Observed log APA” value does the source give for `COc1cc2[nH]c(C)nc2cc1-c1nc(C)c(-c2cccnc2)[nH]1` here?
A: Its value is 0.83.

Q: With `COc1c(-c2nc(C)c(-c3cccnc3)[nH]2)cc(Cl)c2[nH]c(CCC(=O)O)nc12` as the molecule, how does the “Observed log APA” value read?
A: Its value is 0.4.

Q: For `COc1cc2c(cc1-c1nc(C)c(-c3cccnc3)[nH]1)nc(O)n2C`, which “Observed log APA” value is on record?
A: Its value is 0.57.

Q: Which “Observed log APA” value does the source give for `CSc1ccccc1-c1nc(C)c(-c2cccnc2)[nH]1` here?
A: The value was 0.95.

Q: Which “Observed log APA” value does the source give for `COc1cc(NC(C)=O)c(Cl)cc1-c1nc(C)c(-c2cccnc2)[nH]1` here?
A: The value was 1.4.

Q: With `Cc1[nH]c(-c2ccccc2F)nc1-c1cccnc1` as the molecule, how does the “Observed log APA” value read?
A: Its value is 1.4.

Q: For `CNC(=O)Nc1ccccc1-c1nc(C)c(-c2cccnc2)[nH]1`, which “Observed log APA” value is on record?
A: Its value is 1.1.

Q: With `CCOc1ccccc1-c1nc(C)c(-c2cccnc2)[nH]1` as the molecule, how does the “Observed log APA” value read?
A: The value was 1.1.

Q: Which “Observed log APA” value does the source give for `COC(=O)Nc1ccccc1-c1nc(C)c(-c2cccnc2)[nH]1` here?
A: The value was 1.4.

Q: For `COc1ccccc1-c1nc(C)c(-c2cccnc2)[nH]1`, which “Observed log APA” value is on record?
A: Its value is 1.1.

Q: Which “Observed log APA” value does the source give for `COc1cc(NC(C)=O)c([N+](=O)[O-])cc1-c1nc(C)c(-c2cccnc2)[nH]1` here?
A: Its value is 1.5.

Q: For `COc1c(-c2nc(C)c(-c3cccnc3)[nH]2)cc(Cl)c2[nH]c(C)nc12`, which “Observed log APA” value is on record?
A: Its value is 1.3.

Q: Which “Observed log APA” value does the source give for `Cc1nc2cc(Cl)c(-c3nc(C)c(-c4cccnc4)[nH]3)cc2[nH]1` here?
A: Its value is 0.68.
